Among the data in BindingDB's records for doi:10.1111/j.1747-0285.2007.00594.x (Pfizer, 2007) are IC50 values, retold here.

The structures appear in SMILES notation. A value given as a limit tells only on which side of the number the result lay.

Holding throughout (experiment): Enzymatic Activity Assay
Common to all, as to conditions: pH 7.5; 22 °C

Assay [1] addresses Serine/threonine-protein kinase PLK1 (Homo sapiens, UniProt P53350).
Assay [2] concerns the target Serine/threonine-protein kinase PLK3 (Homo sapiens, UniProt Q9H4B4).
Assay [3] addresses Serine/threonine-protein kinase PLK2 (Homo sapiens, UniProt Q9NYY3).

Sequence of Serine/threonine-protein kinase PLK1 (P53350 whole entry): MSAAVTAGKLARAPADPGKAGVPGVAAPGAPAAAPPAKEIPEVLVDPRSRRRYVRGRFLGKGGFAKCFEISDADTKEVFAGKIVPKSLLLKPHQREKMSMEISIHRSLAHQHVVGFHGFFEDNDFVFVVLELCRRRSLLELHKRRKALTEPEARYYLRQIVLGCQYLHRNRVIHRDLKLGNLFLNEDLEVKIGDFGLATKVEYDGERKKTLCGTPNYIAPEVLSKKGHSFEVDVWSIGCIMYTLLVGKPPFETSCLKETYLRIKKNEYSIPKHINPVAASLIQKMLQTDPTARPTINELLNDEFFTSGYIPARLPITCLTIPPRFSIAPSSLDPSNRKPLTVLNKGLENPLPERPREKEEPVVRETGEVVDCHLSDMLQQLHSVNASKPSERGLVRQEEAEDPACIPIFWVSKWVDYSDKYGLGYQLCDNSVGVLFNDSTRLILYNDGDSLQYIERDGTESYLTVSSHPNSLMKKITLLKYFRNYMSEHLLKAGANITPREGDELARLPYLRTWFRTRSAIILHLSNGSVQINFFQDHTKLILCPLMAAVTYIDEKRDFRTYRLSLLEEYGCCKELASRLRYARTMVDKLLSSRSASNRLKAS
Sequence of Serine/threonine-protein kinase PLK2 (Q9NYY3 whole entry): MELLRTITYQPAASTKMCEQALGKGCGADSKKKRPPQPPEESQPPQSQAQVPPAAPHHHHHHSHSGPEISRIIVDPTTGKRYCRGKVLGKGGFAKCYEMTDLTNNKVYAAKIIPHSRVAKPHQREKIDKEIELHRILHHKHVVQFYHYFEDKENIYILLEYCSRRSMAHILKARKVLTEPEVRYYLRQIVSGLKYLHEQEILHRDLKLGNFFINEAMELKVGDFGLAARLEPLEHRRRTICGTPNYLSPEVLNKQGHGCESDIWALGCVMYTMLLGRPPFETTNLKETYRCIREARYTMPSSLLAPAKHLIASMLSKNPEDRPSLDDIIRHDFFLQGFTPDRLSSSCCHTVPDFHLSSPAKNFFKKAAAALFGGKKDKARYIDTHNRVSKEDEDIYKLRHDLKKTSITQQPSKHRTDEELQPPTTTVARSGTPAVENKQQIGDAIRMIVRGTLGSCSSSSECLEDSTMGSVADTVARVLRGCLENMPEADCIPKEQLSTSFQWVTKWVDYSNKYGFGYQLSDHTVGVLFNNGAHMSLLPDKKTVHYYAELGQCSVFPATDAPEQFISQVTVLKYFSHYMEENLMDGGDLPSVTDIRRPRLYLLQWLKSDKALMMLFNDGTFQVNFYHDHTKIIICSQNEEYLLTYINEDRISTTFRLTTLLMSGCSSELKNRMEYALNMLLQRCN
Sequence of Serine/threonine-protein kinase PLK3 (Q9H4B4 whole entry): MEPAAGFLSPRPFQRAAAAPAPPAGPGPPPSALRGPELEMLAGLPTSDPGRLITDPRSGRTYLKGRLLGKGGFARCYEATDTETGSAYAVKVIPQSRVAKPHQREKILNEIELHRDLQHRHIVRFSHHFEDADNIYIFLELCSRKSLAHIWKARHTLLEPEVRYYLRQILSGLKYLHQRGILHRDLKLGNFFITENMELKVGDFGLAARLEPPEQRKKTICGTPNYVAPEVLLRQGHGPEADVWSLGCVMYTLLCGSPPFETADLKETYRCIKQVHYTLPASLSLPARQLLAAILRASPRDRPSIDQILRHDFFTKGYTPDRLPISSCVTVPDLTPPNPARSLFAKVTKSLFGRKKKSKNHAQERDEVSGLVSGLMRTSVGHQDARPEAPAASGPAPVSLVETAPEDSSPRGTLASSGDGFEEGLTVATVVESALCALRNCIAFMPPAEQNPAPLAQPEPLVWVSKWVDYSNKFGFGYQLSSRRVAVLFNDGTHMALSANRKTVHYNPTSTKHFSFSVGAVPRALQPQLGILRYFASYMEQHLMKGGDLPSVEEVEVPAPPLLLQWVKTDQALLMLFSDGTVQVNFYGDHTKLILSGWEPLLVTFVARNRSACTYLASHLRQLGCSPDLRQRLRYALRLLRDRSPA

A word on the IC50: it is the concentration that inhibits the measured activity by half. Regarding `COc1cc(N2CCN(C)CC2)ccc1Nc1ncc(C(C)=O)c(NC2CCCC2)n1` [1-[4-(cyclopentylamino)-2-{[2-methoxy-4-(4-methylpiperazin-1-yl)phenyl]amino}pyrimidin-5-yl]ethan-1-one], the IC50 in assay [1] was 145 nM; in assay [2], 2580 nM; in assay [3], over 10000 nM.

As for `CC(=O)c1cnc(Nc2ccc(N3CCN(C)CC3)cc2)nc1NC1CCCC1` [1-[4-(cyclopentylamino)-2-{[4-(4-methylpiperazin-1-yl)phenyl]amino}pyrimidin-5-yl]ethan-1-one], the IC50 in assay [1] came to 345 nM; in assay [2], 3490 nM; in assay [3] it was 367 nM.

Take `CC[C@@H]1C(=O)N(C)c2cnc(Nc3ccc(C(=O)NC4CCN(C)CC4)cc3)nc2N1C1CCCC1` [4-{[(7R)-8-cyclopentyl-7-ethyl-5-methyl-6-oxo-5,6,7,8-tetrahydropteridin-2-yl]amino}-N-(1-methylpiperidin-4-yl)benzamide]: the IC50 worked out at 5 nM in assay [1], 6.7 nM in assay [2] and 11.5 nM in assay [3].
